Laboratory results published in the supplement of paper PMC10721915.
± gives the standard deviation of the averaged measurements.

Key:
Assay in all cases: relative cell growth vs untreated control (GI, NCI-DTP normalisation with time-zero) (fraction of control growth); higher = more growth / less inhibition
Settings in all cases: treatment time: 120 h
LOVO = system: LOVO
Description: (§1)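 Cancer cell lines in 96-well plates were treated 48 h after seeding with M4076 (ATM inhibitor) and berzosertib (ATR inhibitor), alone or mixed, in 4-fold dilutions for 120 h. Protein was read by sulforhodamine B staining, background-subtracted and normalised NCI-DTP style to untreated control growth. Rows with one concentration equal to 0 are monotherapy.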

MHHES1 = system: MHHES1
Description: as §1

HL60 = system: HL60
Description: as §1

A204 = system: A204
Description: as §1

RDES = system: RDES
Description: as §1

SW620 = system: SW620
Description: as §1

SAOS2 = system: SAOS2
Description: as §1

MDAMB231 = system: MDAMB231
Description: as §1

PANC1 = system: PANC1
Description: as §1

MIAPACA2 = system: MIAPACA2
Description: as §1

COc1cc2ncc3c(c2cc1-c1cn(C)nc1C)n(-c1c(F)cncc1OC)c(=O)n3C [M4076] + CNCc1ccc(-c2cc(-c3nc(-c4ccc(S(=O)(=O)C(C)C)cc4)cnc3N)on2)cc1 [berzosertib]
relative cell growth
Settings | A204 | HL60 | LOVO | MDAMB231 | MHHES1 | MIAPACA2 | PANC1 | RDES | SAOS2 | SW620
concentration of first compound 0.0195 µM, concentration of partner 0 M | 1.25 ± 0.11 | 1.14 ± 0.11 | 1.25 ± 0.26 | 1.06 ± 0.085 | 1.19 ± 0.12 | 1.08 ± 0.2 | 1.27 ± 0.16 | 1.1 ± 0.013 | 1.16 ± 0.15 | 1.08 ± 0.14
concentration of first compound 0.0195 µM, concentration of partner 0.2 µM | 0.675 | 1.06 | 0.105 | 1.1 | 0.662 | 0.643 | 0.992 | 1.16 | 0.735 | 0.95
concentration of first compound 0.0781 µM, concentration of partner 0 M | 1.16 ± 0.1 | 1.13 ± 0.1 | 1.21 ± 0.25 | 1.02 ± 0.082 | 1.15 ± 0.12 | 1.17 ± 0.22 | 1.2 ± 0.15 | 1.01 ± 0.012 | 1.14 ± 0.15 | 1.09 ± 0.14
concentration of first compound 0.0781 µM, concentration of partner 0.2 µM | 0.9 | 1.12 | 0.209 | 0.932 | 0.505 | 0.542 | 1.36 | 1.16 | 0.657 | 0.848
concentration of first compound 0.313 µM, concentration of partner 0 M | 1.1 ± 0.098 | 1.03 ± 0.096 | 1.09 ± 0.23 | 0.93 ± 0.074 | 1.05 ± 0.11 | 1.03 ± 0.19 | 1.45 ± 0.18 | 0.941 ± 0.011 | 1.05 ± 0.14 | 1.01 ± 0.13
concentration of first compound 0.313 µM, concentration of partner 0.2 µM | 0.654 | 0.788 | 0.0984 | 0.499 | 0.17 | 0.269 | 0.541 | 1.13 | 0.319 | 0.449
concentration of first compound 1 µM, concentration of partner 0 M | 0.83 | 0.862 | 0.971 | 0.858 | 0.809 | 1.08 | 0.96 | 0.836 | 0.782 | 0.958
concentration of first compound 1 µM, concentration of partner 0.0195 µM | 0.965 | 0.88 | 0.763 | 0.907 | 0.753 | 0.891 | 0.764 | 0.933 | 0.871 | 0.922
concentration of first compound 1 µM, concentration of partner 0.0781 µM | 0.785 | 0.707 | 0.508 | 0.708 | 0.224 | 0.439 | 0.526 | 0.872 | 0.482 | 0.646
concentration of first compound 1 µM, concentration of partner 0.313 µM | 0.205 | 0.0883 | -0.0419 | 0.198 | 0.0239 | 0.061 | 0.0924 | 0.395 | 0.119 | 0.168
concentration of first compound 1 µM, concentration of partner 1.25 µM | -0.0708 | 0.00814 | -0.0608 | -0.00535 | -0.0145 | 0.0345 | -0.0345 | 0.0966 | -0.0926 | 0.0263
concentration of first compound 1 µM, concentration of partner 5 µM | -0.102 | -0.0212 | -0.0633 | -0.032 | -0.0266 | -0.0126 | -0.0793 | -0.0939 | -0.1 | -0.014
concentration of first compound 1.25 µM, concentration of partner 0 M | 0.914 ± 0.081 | 0.958 ± 0.089 | 1.1 ± 0.23 | 0.775 ± 0.062 | 0.97 ± 0.1 | 1.18 ± 0.22 | 1.1 ± 0.14 | 0.877 ± 0.011 | 0.871 ± 0.11 | 0.96 ± 0.12
concentration of first compound 1.25 µM, concentration of partner 0.2 µM | 0.685 | 0.344 | -0.000928 | 0.328 | 0.0696 | 0.126 | 0.278 | 0.973 | 0.146 | 0.293
concentration of first compound 5 µM, concentration of partner 0 M | 0.524 ± 0.047 | 0.746 ± 0.07 | 0.981 ± 0.2 | 0.695 ± 0.056 | 0.65 ± 0.067 | 1.09 ± 0.2 | 0.743 ± 0.095 | 0.681 ± 0.0083 | 0.652 ± 0.084 | 0.916 ± 0.12
concentration of first compound 5 µM, concentration of partner 0.2 µM | 0.337 | 0.207 | -0.0311 | 0.42 | 0.05 | 0.157 | 0.309 | 0.706 | 0.113 | 0.269

CNCc1ccc(-c2cc(-c3nc(-c4ccc(S(=O)(=O)C(C)C)cc4)cnc3N)on2)cc1 [berzosertib] + COc1cc2ncc3c(c2cc1-c1cn(C)nc1C)n(-c1c(F)cncc1OC)c(=O)n3C [M4076]
relative cell growth, concentration of partner 0 M
Settings | A204 | HL60 | LOVO | MDAMB231 | MHHES1 | MIAPACA2 | PANC1 | RDES | SAOS2 | SW620
concentration of first compound 0.0195 µM | 1.15 ± 0.11 | 1.14 ± 0.12 | 1.07 ± 0.22 | 1.06 ± 0.1 | 1.26 ± 0.15 | 1.06 ± 0.2 | 1.12 ± 0.1 | 1.15 ± 0.026 | 1.16 ± 0.16 | 1.1 ± 0.15
concentration of first compound 0.0781 µM | 1.06 ± 0.1 | 1.1 ± 0.12 | 0.826 ± 0.17 | 1.09 ± 0.1 | 1.21 ± 0.15 | 0.974 ± 0.19 | 1.27 ± 0.11 | 1.14 ± 0.026 | 1.11 ± 0.15 | 1.07 ± 0.15
concentration of first compound 0.2 µM | 0.623 | 0.809 | 0.211 | 0.976 | 0.599 | 0.661 | 0.892 | 1.01 | 0.645 | 0.795
concentration of first compound 0.313 µM | 0.583 ± 0.056 | 0.53 ± 0.056 | 0.0258 ± 0.0054 | 0.775 ± 0.073 | 0.436 ± 0.052 | 0.235 ± 0.045 | 0.482 ± 0.043 | 0.873 ± 0.02 | 0.559 ± 0.076 | 0.494 ± 0.067
concentration of first compound 1.25 µM | -0.0148 ± 0.0015 | 0.0485 ± 0.0051 | -0.0498 ± 0.011 | 0.0906 ± 0.0085 | 0.0564 ± 0.0069 | 0.0129 ± 0.0026 | 0.094 ± 0.0084 | 0.254 ± 0.0058 | 0.0446 ± 0.006 | 0.087 ± 0.012
concentration of first compound 5 µM | -0.0897 ± 0.0087 | -0.0133 ± 0.0014 | -0.0599 ± 0.013 | -0.057 ± 0.0054 | -0.0244 ± 0.0028 | -0.0366 ± 0.0069 | -0.0643 ± 0.0058 | -0.0925 ± 0.0021 | -0.116 ± 0.016 | -0.01 ± 0.0014
